Measurements published in publication PMC8286840, “Identifying SARS-CoV-2 antiviral compounds by screening for small molecule inhibitors of Nsp3 papain-like protease” (Biochemical Journal, 2021).
Where a name gives a salt, the structure may show the parent alone. Read-outs that look alike come from different tables or passages of the source.

Legend:
[1] = molecular target: T1, SARS-CoV-2 PLpro (nsp3 1564–1878) (Severe acute respiratory syndrome coronavirus 2, UniProt P0DTD1); test: biochemical; parameters: FRET-quenched peptide (Pro3) cleavage by PLpro, 10 min pre-incubation, slope over 20 min, normalised to no-compound control; settings: low concentration screen, read-out: % of control remaining
[2] = molecular target: T1, SARS-CoV-2 PLpro (nsp3 1564–1878); test: biochemical; parameters: FRET-quenched peptide (Pro3) cleavage by PLpro, 10 min pre-incubation, slope over 20 min, normalised to no-compound control; settings: high concentration screen, read-out: % of control remaining

Work on Nc1nc2c(cnn2CCc2ccccc2)c2nc(-c3ccco3)nn12 [SCH 58261] yielded a remaining activity at 1.25 µM ([1]; Well no.=7907) of 95.3%, a remaining activity at 1.25 µM ([1]; Well no.=8309) of 98.9% and a remaining activity at 3.75 µM ([2]; Well no.=7907) of 99.3%. The remaining activity at 3.75 µM ([2]; Well no.=8309) was 97.1%.

In the case of CC(/C=C/C(=O)NO)=C\[C@@H](C)C(=O)c1ccc(N(C)C)cc1 [Trichostatin A (TSA)], the remaining activity at 1.25 µM ([1]; Well no.=4617) is reported as 106% and the remaining activity at 3.75 µM ([2]; Well no.=4617) is reported as 107%.

C=C(C)[C@H]1CN[C@H](C(=O)O)[C@H]1CC(=O)O [Kainic acid] gave a remaining activity at 1.25 µM ([1]; Well no.=829) of 106%, a remaining activity at 1.25 µM ([1]; Well no.=7792) of 105% and a remaining activity at 3.75 µM ([2]; Well no.=829) of 105%. For the same compound, the remaining activity at 3.75 µM ([2]; Well no.=3369) was 104% and the remaining activity at 3.75 µM ([2]; Well no.=7792) was 102%.

Work on COc1cc(/C=C/C(=O)O)ccc1O [Ferulic acid] yielded a remaining activity at 1.25 µM ([1]; Well no.=3518) of 98.9% and a remaining activity at 3.75 µM ([2]; Well no.=3518) of 100%.

With Cc1cc(C)c(Nc2ccnc(Nc3ccc(C#N)cc3)n2)c(C)c1 [Dapivirine] the remaining activity at 1.25 µM ([1]; Well no.=5223) was 97.4% and the remaining activity at 3.75 µM ([2]; Well no.=5223) was 98.3%.

In the case of N[C@@H](Cc1c[nH]c2ccc(O)cc12)C(=O)O [L-5-Hydroxytryptophan], the remaining activity at 1.25 µM ([1]; Well no.=7409) is reported as 99.9% and the remaining activity at 3.75 µM ([2]; Well no.=7409) is reported as 104%.

O=C(O)C1=CO[C@@H](O[C@@H]2O[C@H](CO)[C@@H](O)[C@H](O)[C@H]2O)[C@@H]2C(CO)=CC[C@H]12 [Geniposidic acid] was tested, and the remaining activity at 1.25 µM ([1]; Well no.=5236) was 95.4% and the remaining activity at 3.75 µM ([2]; Well no.=5236) was 95.9%.

C[C@H](O)[C@@H](O)[C@@H](O)[C@H](O)C=O [(-)-Fucose] showed a remaining activity at 1.25 µM ([1]; Well no.=6549) of 98.1% and a remaining activity at 3.75 µM ([2]; Well no.=6549) of 91.4%.

In the case of COc1cc(C(O)CO)ccc1OS(=O)(=O)O (centres unmarked) [MHPG sulfate potassium], the remaining activity at 1.25 µM ([1]; Well no.=710) is reported as 93% and the remaining activity at 3.75 µM ([2]; Well no.=710) is reported as 90.8%.

C[C@]12CCC(=O)C=C1CC[C@@H]1[C@@H]2CC[C@@]2(C)[C@H]1CC[C@]2(O)C(=O)CO [Cortexolone] was tested, and the remaining activity at 1.25 µM ([1]; Well no.=1509) was 93.1% and the remaining activity at 3.75 µM ([2]; Well no.=1509) was 93%.

N=C1Sc2ccccc2C2=NCCCN12 [PD 404,182] was tested, and the remaining activity at 1.25 µM ([1]; Well no.=1096) was 98.8% and the remaining activity at 3.75 µM ([2]; Well no.=1096) was 101%.

Compound CC(CCC(=O)O)C(=O)O (centres unmarked) [2-Methylpentanedioic acid] has a remaining activity at 1.25 µM ([1]; Well no.=6733) of 99.7% and a remaining activity at 3.75 µM ([2]; Well no.=6733) of 105%.

In the case of CN1C(=O)COc2c(C(=O)NC3CN4CCC3CC4)cc(Cl)cc21 (centres unmarked) [Azasetron (hydrochloride)], the remaining activity at 1.25 µM ([1]; Well no.=8243) is reported as 96.2% and the remaining activity at 3.75 µM ([2]; Well no.=8243) is reported as 96.1%.

For CCc1cc(C(N)=S)ccn1 [Ethionamide], the remaining activity at 1.25 µM ([1]; Well no.=5347) was 96.4% and the remaining activity at 3.75 µM ([2]; Well no.=5347) was 95.4%.

CC(=O)N[C@@H](Cc1ccccc1)C(=O)O [NSC 45699] gave a remaining activity at 1.25 µM ([1]; Well no.=8710) of 107% and a remaining activity at 3.75 µM ([2]; Well no.=8710) of 106%.

Work on C[C@@]12C[C@@]3(O)O[C@@H](O1)[C@]1(COC(=O)c4ccccc4)[C@H]3C[C@@]12O[C@@H]1O[C@H](COC(=O)c2ccccc2)[C@@H](O)[C@H](O)[C@H]1O [Benzoylpaeoniflorin] yielded a remaining activity at 1.25 µM ([1]; Well no.=6394) of 101% and a remaining activity at 3.75 µM ([2]; Well no.=6394) of 98.2%.

Work on CCC(C)C(CC)C(N)=O (centres unmarked) [Valnoctamide] yielded a remaining activity at 1.25 µM ([1]; Well no.=5429) of 103% and a remaining activity at 3.75 µM ([2]; Well no.=5429) of 110%.

CCC1C(C)=NN=C(c2ccc(OC)c(OC)c2)c2cc(OC)c(OC)cc21 (centres unmarked) [Tofisopam] showed a remaining activity at 1.25 µM ([1]; Well no.=5780) of 103% and a remaining activity at 3.75 µM ([2]; Well no.=5780) of 103%.

CNC(C)Cc1ccccc1OC (centres unmarked) [Methoxyphenamine (Hydrochloride)] showed a remaining activity at 1.25 µM ([1]; Well no.=8577) of 109% and a remaining activity at 3.75 µM ([2]; Well no.=8577) of 105%.

CN1[C@@H]2CC(O)C[C@H]1[C@@H]1O[C@@H]12 (some centres unmarked) [Scopine HCl] showed a remaining activity at 1.25 µM ([1]; Well no.=4914) of 87.1% and a remaining activity at 3.75 µM ([2]; Well no.=4914) of 84%.

In the case of O=C(O)CNC(=O)c1cccnc1 [Nicotinuric acid], the remaining activity at 1.25 µM ([1]; Well no.=6537) is reported as 109% and the remaining activity at 3.75 µM ([2]; Well no.=6537) is reported as 105%.

CC1=C[C@]23C(=O)[C@@H](C=C(CO)[C@@H](O)[C@]2(O)[C@H]1O)[C@H]1[C@@H](C[C@H]3C)C1(C)C [Ingenol] gave a remaining activity at 1.25 µM ([1]; Well no.=3308) of 98.5% and a remaining activity at 3.75 µM ([2]; Well no.=3308) of 99.1%.

CN1CCN(C2Cc3ccccc3Sc3ccc(Cl)cc32)CC1 (racemic) showed a remaining activity at 1.25 µM ([1]; Well no.=804) of 104% and a remaining activity at 3.75 µM ([2]; Well no.=804) of 105%.

CN1C(=O)[C@@H](NC(=O)c2n[nH]c(Cc3ccccc3)n2)COc2ccccc21 [GSK2982772] gave a remaining activity at 1.25 µM ([1]; Well no.=7074) of 96.7% and a remaining activity at 3.75 µM ([2]; Well no.=7074) of 95.1%.
